Reference: US20080102039A1, “Betamethasone spray” (priority 2006, published 2008)

Key:
[1] = Preparation of Formulation 1: dissolution of BMV in dimethyl isosorbide and visual check for precipitation; format: physicochemical; settings: Formulation 1 preparation
Experimental: • 1) Into vessel 1 was added the dimethyl isosorbide to which was slowly sprinkled the BMV. This was left mixing until visually dissolved. • 2) To vessel 1 was added the propylene glycol with stirring until homogenous. • 3) In vessel 2 was added the required amount of water and polysorbate 80. This was stirred until dissolved and homogenous. • 4) The 3Na.citrate.2H2O, anhyd. citric acid, imidazolidinyl urea and SDS were then added to vessel 2 and stirred until completely dissolved. • 5) The contents of vessel 2 were then poured into vessel 1 and stirred until homogenous.
A 1.1 kg batch of the 0.12% w/w Betamethasone valerate foam formulation above was then made up for a 3-month accelerated stability study using the same method: (Table 2)

[2] = Microscope examination of drops for crystals (Leica DM LB, drop taken every 5 mins); format: physicochemical
Experimental: The DMI phase was made up for a total solution volume of 500 g so 0.600 g (actual weight) of betamethasone valerate was dissolved in 25.009 g of Arlasolve DMI. The rate of addition was 0.600 g added over 30 secs that is at a rate of 0.02 g/sec. The solution was then mixed at speed setting 1 on the Bibby magnetic stirrer. 1 drop of the solution was then taken every 5 mins. and examined under the Leica DM LB microscope with a 5× lens and L plan 10× eyepiece. A 100×1 mm^2 graticule was placed over the sample. The temperatures before and after addition of DMI were also recorded.
Whilst stirring the BMV/DMI solution at speed 1 on the Bibby magnetic stirrer, the propylene glycol (50.008 g) was poured in over approx. 12 secs, at a rate of 4.17 g/sec. 1 drop of the solution was then taken every 5 mins. and examined under a Leica DM LB microscope with a 5× lens and L plan 10× eyepiece. […] The temperatures before and after addition of propylene glycol were also recorded.
15.120 g of the active phase was added to 84.880 g of the aqueous phase over 10 secs (Total vol.=100.000 g), at a rate of 1.51 g/sec. […] The temperatures before and after addition of the active phase were also recorded. […]
84.882 g of the aqueous phase were added to 15.129 g of the active phase over 10 secs (Total vol.=100.011 g). […] The temperatures before and after addition of the aqueous phase were also recorded. […]

[3] = cited from earlier work

SMILES: CCCCC(=O)O[C@]1(C(=O)CO)[C@@H](C)C[C@H]2[C@@H]3CCC4=CC(=O)C=C[C@]4(C)[C@@]3(F)[C@@H](O)C[C@@]21C [Betamethasone valerate]
- dissolution of BMV into dimethyl isosorbide [1]: successfully dissolved
- time to fully dissolve into the dimethyl isosorbide ([2]; 0.600 g in 25.009 g Arlasolve DMI, stirrer speed 1): at least 30 minutes
- effect of addition of propylene glycol on precipitating the betamethasone valerate ([2]; propylene glycol 50.008 g poured into BMV/DMI solution): no effect
- solubility in water [3]: practically insoluble
